According to ChEMBL document CHEMBL1125692 (J Med Chem, 1991):

Columns and labels:
[1] = target: T1, D(2) dopamine receptor (Rattus norvegicus, UniProt P61169); assay: Displacement of [3H]- spiperone from dopamine receptor D2 of striatal membranes without sodium chloride
[2] = target: T1, D(2) dopamine receptor; assay: Compound was evaluated for binding affinity towards dopamine receptor D2 in striatal membranes, using [3H]- spiperone as radioligand in the presence of sodium chloride; assay type: cell membranes
[3] = target: T2, Adrenergic receptor alpha-2 (Rattus norvegicus, UniProt P22086+P19328+P22909); assay: binding affinity towards alpha-2 adrenergic receptor, using [3H]- atipamezole as radioligand from rat frontal cortex membranes; assay type: tissue-based
T2 sequence (P22086 whole entry): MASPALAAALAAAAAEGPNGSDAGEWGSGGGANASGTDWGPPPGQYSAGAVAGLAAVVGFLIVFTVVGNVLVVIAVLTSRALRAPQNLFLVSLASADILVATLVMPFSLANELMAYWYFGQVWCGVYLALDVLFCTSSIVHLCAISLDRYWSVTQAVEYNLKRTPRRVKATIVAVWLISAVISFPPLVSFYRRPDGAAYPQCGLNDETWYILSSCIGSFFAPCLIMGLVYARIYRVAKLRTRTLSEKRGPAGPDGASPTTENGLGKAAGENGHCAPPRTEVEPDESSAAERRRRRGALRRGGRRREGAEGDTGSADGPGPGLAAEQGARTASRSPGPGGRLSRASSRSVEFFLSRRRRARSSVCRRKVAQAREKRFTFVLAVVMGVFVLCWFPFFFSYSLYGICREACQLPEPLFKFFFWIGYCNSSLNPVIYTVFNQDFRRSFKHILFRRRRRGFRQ
T2 sequence (P19328 whole entry): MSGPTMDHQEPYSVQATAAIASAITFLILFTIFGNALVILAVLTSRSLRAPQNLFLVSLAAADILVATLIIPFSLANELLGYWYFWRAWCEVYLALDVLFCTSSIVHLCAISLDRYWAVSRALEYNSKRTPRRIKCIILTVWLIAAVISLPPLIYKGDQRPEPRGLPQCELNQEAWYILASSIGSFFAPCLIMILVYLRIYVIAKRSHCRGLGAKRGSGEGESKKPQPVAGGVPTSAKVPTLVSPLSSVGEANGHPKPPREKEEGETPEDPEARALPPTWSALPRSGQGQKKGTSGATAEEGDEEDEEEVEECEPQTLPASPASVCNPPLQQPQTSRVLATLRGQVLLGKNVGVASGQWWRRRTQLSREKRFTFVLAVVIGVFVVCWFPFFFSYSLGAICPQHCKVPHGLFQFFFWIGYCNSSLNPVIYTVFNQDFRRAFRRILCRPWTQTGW
T2 sequence (P22909 whole entry): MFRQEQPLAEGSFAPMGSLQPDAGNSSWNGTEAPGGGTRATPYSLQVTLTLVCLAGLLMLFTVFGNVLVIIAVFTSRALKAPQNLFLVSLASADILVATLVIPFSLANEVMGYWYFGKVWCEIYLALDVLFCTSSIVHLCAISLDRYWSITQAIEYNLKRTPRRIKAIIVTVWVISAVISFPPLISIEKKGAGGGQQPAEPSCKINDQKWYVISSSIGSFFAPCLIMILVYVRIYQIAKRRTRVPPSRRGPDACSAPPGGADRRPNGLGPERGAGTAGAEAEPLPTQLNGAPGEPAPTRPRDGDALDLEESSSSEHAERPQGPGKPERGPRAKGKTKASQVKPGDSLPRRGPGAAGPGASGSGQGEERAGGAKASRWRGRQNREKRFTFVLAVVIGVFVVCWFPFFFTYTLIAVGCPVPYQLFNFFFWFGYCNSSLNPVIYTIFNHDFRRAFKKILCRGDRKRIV

T1 sequence (P61169 whole entry): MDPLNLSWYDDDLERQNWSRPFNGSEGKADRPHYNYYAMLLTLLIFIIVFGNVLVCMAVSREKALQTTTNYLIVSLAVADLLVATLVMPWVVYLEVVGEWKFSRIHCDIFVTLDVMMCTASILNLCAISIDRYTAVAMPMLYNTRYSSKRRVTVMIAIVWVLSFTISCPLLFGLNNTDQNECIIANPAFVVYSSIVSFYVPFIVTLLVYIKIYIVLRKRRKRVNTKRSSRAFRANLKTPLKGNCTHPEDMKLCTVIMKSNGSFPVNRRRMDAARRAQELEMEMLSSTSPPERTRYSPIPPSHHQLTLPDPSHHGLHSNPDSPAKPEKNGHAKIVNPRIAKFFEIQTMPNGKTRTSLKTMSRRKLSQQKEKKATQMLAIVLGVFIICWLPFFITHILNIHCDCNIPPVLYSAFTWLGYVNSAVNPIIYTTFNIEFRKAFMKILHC

Row | SMILES | Ki [1] | Ki [2] | Ki [3]
1 | CCN1CCC[C@@H]1CNC(=O)c1cc(CCF)cc(OC)c1OC | > 10000 nM | – | –
2 | CCN1CCC[C@@H]1CNC(=O)c1c(O)c(CCCF)cc(OC)c1OC | > 10000 nM | – | –
3 | CCN1CCC[C@H]1CNC(=O)c1cccc(OC)c1OC | 66 nM | – | –
4 | CCCc1cc(OC)c(OC)c(C(=O)NC[C@@H]2CCCN2CC)c1 | 6.98 nM | – | –
5 | CCN1CCC[C@H]1CNC(=O)c1cc(I)cc(OC)c1OC [EPIDEPRIDE] | – | 0.27 nM | 5 nM

The remaining compounds from weak to strong by Ki [1], led by results:

Row | Ki [1] | Ki [2] | Ki [3] | SMILES
6 | 5.27 nM | 1.41 nM | – | CCN1CCC[C@H]1CNC(=O)c1cc(CCF)cc(OC)c1OC
7 | 4.4 nM | 1.17 nM | – | CCN1CCC[C@H]1CNC(=O)c1cc(CCCF)cc(OC)c1OC
8 | 1.28 nM | – | – | CCCc1cc(OC)c(OC)c(C(=O)NC[C@@H]2CCCN2CC)c1O
9 | 0.8 nM | 0.25 nM | 11.1 nM | CCN1CCC[C@H]1CNC(=O)c1c(O)c(CCCF)cc(OC)c1OC
10 | 0.77 nM | 0.24 nM | 9.5 nM | CCN1CCC[C@H]1CNC(=O)c1c(O)c(CCF)cc(OC)c1OC
11 | 0.76 nM | 0.2 nM | – | CCN1CCC[C@H]1CNC(=O)c1cc(Br)cc(OC)c1OC
